Assay results: patent publication US8883782B2, “Spiro-tetracyclic ring compounds as beta-secretase modulators and methods of use” (Amgen Inc., priority 2010, dated 2014)
Like-named read-outs stand apart in the source and are kept apart here.

Assays:
[1] = target: Beta Secretase enzyme (BACE) (Homo sapiens, UniProt P56817); assay: In vitro enzymatic BACE FRET (fluorescence resonance energy transfer) assay; assay type: biochemical; details: average IC50, enzyme assay; read-out: BACE 1 FRET assay
In short: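 Enzyme activity was measured at pH 4.2 (0.05 M acetate, 10% DMSO final, 100 uM genapol) by cleavage of a 50 nM quenched fluorogenic peptide. After one hour, Tris was added to neutralise the pH and fluorescence was recorded.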

[2] = system: Aβ40 in conditioned medium of cells stably expressing Amyloid Precursor Protein (APP); assay: In vitro BACE cell-based assay (Aβ40 in conditioned medium, sandwich ELISA); details: read-out: HEK cell assay
In short: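 The sandwich ELISA pairs pAb40 capture (3 h, 4 °C) with 6E10 detection (2 h, 4 °C) and a streptavidin-europium TRF read-out. Supernatants come from APP-expressing cells grown in 10% FBS DMEM.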

[3] = Homo sapiens, HEK293, average IC50
[4] = Homo sapiens, HEK293, average IC50, HEK cells

Beta Secretase enzyme (BACE), sequence (P56817 46-501, species assumed): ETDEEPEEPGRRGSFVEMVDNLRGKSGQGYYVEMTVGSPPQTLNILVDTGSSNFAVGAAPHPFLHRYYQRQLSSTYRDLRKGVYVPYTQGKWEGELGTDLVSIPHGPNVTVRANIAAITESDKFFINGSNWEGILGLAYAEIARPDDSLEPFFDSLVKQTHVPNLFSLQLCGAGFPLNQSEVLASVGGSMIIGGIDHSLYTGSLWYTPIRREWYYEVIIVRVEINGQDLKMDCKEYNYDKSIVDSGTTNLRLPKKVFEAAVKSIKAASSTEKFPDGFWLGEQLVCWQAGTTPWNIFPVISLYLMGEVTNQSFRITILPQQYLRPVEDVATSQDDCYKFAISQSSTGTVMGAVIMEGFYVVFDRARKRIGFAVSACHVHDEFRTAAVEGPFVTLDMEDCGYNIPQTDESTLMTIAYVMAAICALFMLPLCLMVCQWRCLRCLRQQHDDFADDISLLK

| IC50 [1] | IC50 [2, 3] | IC50 [2, 4] | SMILES | IC50 ([2]; average IC50, HEK cells) | IC50 [2] |
| --- | --- | --- | --- | --- | --- |
| 0.8 nM | 15 nM | – | CC1(C#Cc2cc3c(cn2)Oc2ccc(-c4cccnc4F)cc2[C@@]32CSC(N)=N2)COC1 [Example 995, (5S)-7-(2-fluoro-3-pyridinyl)-3-((3-methyl-3-oxetanyl)ethynyl)spiro[chromeno[2,3-c]pyridine-5,4′-[1,3]thiazol]-2′-amine] | – | – |
| 179 nM | – | 6470 nM | NC1=N[C@]2(CO1)c1cc(-c3cccnc3F)c(F)cc1Oc1c(F)cc(C3CCOCC3)cc12 [Example 871, (4R)-3′,5′-difluoro-2′-(2-fluoro-3-pyridinyl)-7′-(tetrahydro-2H-pyran-4-yl)spiro[1,3-oxazole-4,9′-xanthen]-2-amine] | – | – |
| 1.1 nM | 21 nM | – | COc1cc(F)c2c(c1)[C@]1(COC(N)=N1)c1cc(-c3cncc(C#CCO)c3)ccc1O2 [Example 820, 3-(5-((4S)-2-amino-5′-fluoro-7′-methoxyspiro[1,3-oxazole-4,9′-xanthen]-2′-yl)-3-pyridinyl)-2-propyn-1-ol] | – | – |
| 346 nM | – | 2150 nM | CC1(C#Cc2cnc3c(c2)[C@]2(COC(N)=N2)c2cc(O)ccc2O3)COC1 [Example 690, (5S)-2′-amino-3-((3-methyl-3-oxetanyl)ethynyl)spiro[chromeno[2,3-b]pyridine-5,4′-[1,3]oxazol]-7-ol] | – | – |
| 80.4 nM | – | 853 nM | COc1cncc(-c2ccc3c(c2)[C@@]2(COC(N)=N2)c2cc(-c4ncccn4)ncc2O3)c1 [Example 687, (5S)-7-(5-methoxy-3-pyridinyl)-3-(2-pyrimidinyl)spiro[chromeno[2,3-c]pyridine-5,4′-[1,3]oxazol]-2′-amine] | – | – |
| 1.6 nM | 8.8 nM | – | COc1cncc(-c2ccc3c(c2)[C@@]2(COC(N)=N2)c2cc(C4=CCOCC4)ncc2O3)c1 [Example 144, (5S)-3-(3,6-dihydro-2H-pyran-4-yl)-7-(5-methoxy-3-pyridinyl)spiro[chromeno[2,3-c]pyridine-5,4′-[1,3]oxazol]-2′-amine] | – | – |
| 1.5 nM | 30 nM | – | NC1=N[C@@]2(CO1)c1cc(-c3cncnc3)c(F)cc1Oc1c(F)cc(C3CCOCC3)cc12 [Example 1040, (4S)-3′,5′-difluoro-2′-(5-pyrimidinyl)-7′-(tetrahydro-2H-pyran-4-yl)spiro[1,3-oxazole-4,9′-xanthen]-2-amine] | – | – |
| 131 nM | 324 nM | – | COc1cc(F)c2c(c1)[C@]1(COC(N)=N1)c1cc(-c3cncc(CC#N)c3)ccc1O2 [Example 1074, (5-((4S)-2-amino-5′-fluoro-7′-methoxyspiro[1,3-oxazole-4,9′-xanthen]-2′-yl)-3-pyridinyl)acetonitrile] | – | – |
| 13.5 nM | 218 nM | – | NC1=N[C@]2(CS1)c1cc(-c3cccnc3F)ccc1Oc1c2cc(C2=CCOCC2)nc1F [Example 998, (5R)-3-(3,6-dihydro-2H-pyran-4-yl)-1-fluoro-7-(2-fluoro-3-pyridinyl)spiro[chromeno[2,3-c]pyridine-5,4′-[1,3]thiazol]-2′-amine] | – | – |
| 13300 nM | – | ≥ 10000 nM | COc1ccc2c(c1)[C@@]1(COC(N)=N1)c1cc(C3(O)COC3)cc(F)c1O2 [Example 708, (S)-3-(2-amino-5′-fluoro-2′-methoxy-5H-spiro[oxazole-4,9′-xanthene]-7′-yl)oxetan-3-ol] | – | – |
| 5.4 nM | – | 65 nM | Cn1cc(-c2cnc3c(c2)[C@]2(CSC(N)=N2)c2cc(-c4ccc(F)nc4)ccc2O3)cn1 [Example 962, (5S)-7-(6-fluoro-3-pyridinyl)-3-(1-methyl-1H-pyrazol-4-yl)spiro[chromeno[2,3-b]pyridine-5,4′-[1,3]thiazol]-2′-amine] | – | – |
| 1.7 nM | 21.7 nM | – | NC1=N[C@@]2(CO1)c1cc(-c3cccnc3F)ccc1Oc1c(F)cc([C@H]3CCCOC3)cc12 [Example 287, (4S)-4′-fluoro-7′-(2-fluoro-3-pyridinyl)-2′-((3R)-tetrahydro-2H-pyran-3-yl)spiro[1,3-oxazole-4,9′-xanthen]-2-amine] | – | – |
| 1.5 nM | 18.3 nM | – | NC1=N[C@@]2(CO1)c1cc(-c3cccc(Cl)c3F)ccc1Oc1ncc(C3=CCOCC3)cc12 [Example 170, (5S)-7-(3-chloro-2-fluorophenyl)-3-(3,6-dihydro-2H-pyran-4-yl)spiro[chromeno[2,3-b]pyridine-5,4′-[1,3]oxazol]-2′-amine] | – | – |
| 301 nM | – | 326 nM | NC1=N[C@]2(CO1)c1cc(-c3cccnc3)ccc1Oc1c2cc(-c2cccnc2)nc1F [Example 486, (5R)-1-fluoro-3,7-di-3-pyridinylspiro[chromeno[2,3-c]pyridine-5,4′-[1,3]oxazol]-2′-amine] | – | – |
| 6.7 nM | 66 nM | – | COc1nc(C2CCCOC2)cc2c1Oc1ccc(-c3cccnc3F)cc1[C@@]21COC(N)=N1 (stereo partly drawn) [Example 844, (5S)-7-(2-fluoro-3-pyridinyl)-1-methoxy-3-(tetrahydro-2H-pyran-3-yl)spiro[chromeno[2,3-c]pyridine-5,4′-[1,3]oxazol]-2′-amine] | – | – |
| 3230 nM | – | 2210 nM | NC1=N[C@@]2(CO1)c1cc(-c3cncc(N4CC[C@@H](F)C4)c3)ccc1Oc1cnc(Cl)cc12 [Example 429, (5S)-3-chloro-7-(5-((3R)-3-fluoro-1-pyrrolidinyl)-3-pyridinyl)spiro[chromeno[2,3-c]pyridine-5,4′-[1,3]oxazol]-2′-amine] | – | – |
| 25.1 nM | – | 338 nM | NC1=N[C@@]2(CO1)c1cc(-c3c(F)ccnc3F)ccc1Oc1cnc([C@@H]3CCCOC3)cc12 [Example 912, (5S)-7-(2,4-difluoro-3-pyridinyl)-3-((3S)-tetrahydro-2H-pyran-3-yl)spiro[chromeno[2,3-c]pyridine-5,4′-[1,3]oxazol]-2′-amine] | – | – |
| 5.1 nM | – | 70 nM | COc1nccc(-c2cc(F)c3c(c2)[C@]2(COC(N)=N2)c2cc(-c4cccnc4F)ccc2O3)n1 [Example 607, (4S)-4′-fluoro-7′-(2-fluoro-3-pyridinyl)-2′-(2-methoxy-4-pyrimidinyl)spiro[1,3-oxazole-4,9′-xanthen]-2-amine] | – | – |
| 7.8 nM | 2260 nM | – | NC1=N[C@@]2(CO1)c1cc(-c3cccnc3F)ccc1Oc1c2cc(Br)nc1F [Example 734, (5S)-3-bromo-1-fluoro-7-(2-fluoro-3-pyridinyl)spiro[chromeno[2,3-c]pyridine-5,4′-[1,3]oxazol]-2′-amine] | – | – |
| 3.1 nM | 12 nM | – | CC1(COc2cc(F)c3c(c2)[C@]2(COC(N)=N2)c2cc(-c4cnccn4)ccc2O3)COC1 [Example 267, (4S)-4′-fluoro-2′-((3-methyl-3-oxetanyl)methoxy)-7′-(2-pyrazinyl)spiro[1,3-oxazole-4,9′-xanthen]-2-amine] | – | – |
| 0.6 nM | 10 nM | – | NC1=N[C@@]2(CS1)c1cc(-c3cncc(F)c3)ccc1Oc1ncc(C3=CCCOC3)cc12 [Example 770, (5S)-3-(5,6-dihydro-2H-pyran-3-yl)-7-(5-fluoro-3-pyridinyl)spiro[chromeno[2,3-b]pyridine-5,4′-[1,3]thiazol]-2′-amine] | – | – |
| 66.8 nM | 644 nM | – | NC1=N[C@@]2(CO1)c1cc(OCc3cccc(F)c3)ccc1Oc1ncc(-c3cccnc3)cc12 [Example 982, (5S)-7-((3-fluorobenzyl)oxy)-3-(3-pyridinyl)spiro[chromeno[2,3-b]pyridine-5,4′-[1,3]oxazol]-2′-amine] | – | – |
| 2 nM | – | 9.1 nM | CC(C)(C)COc1cc(F)c2c(c1)[C@]1(COC(N)=N1)c1cc(-c3cncnc3)c(F)cc1O2 [Example 526, (4S)-7′-(2,2-dimethylpropoxy)-3′,5′-difluoro-2′-(5-pyrimidinyl)spiroy[1,3-oxazole-4,9′-xanthen]-2-amine] | – | – |
| 640 nM | – | 610 nM | NC1=N[C@@]2(CO1)c1cc(-c3cncc(N4CCC(F)(F)C4)c3)ccc1Oc1cnc(Cl)cc12 [Example 427, (5S)-3-chloro-7-(5-(3,3-difluoro-1-pyrrolidinyl)-3-pyridinyl)spiro[chromeno[2,3-c]pyridine-5,4′-[1,3]oxazol]-2′-amine] | – | – |
| 152 nM | – | 1810 nM | CC(C)(C#N)COc1ccc2c(c1)[C@@]1(COC(N)=N1)c1cc(Br)cc(F)c1O2 [Example 442, 3-(((4S)-2-amino-7′-bromo-5′-fluorospiro[1,3-oxazole-4,9′-xanthen]-2′-yl)oxy)-2,2-dimethylpropanenitrile] | – | – |
| 0.9 nM | – | – | CC1(C)C[C@@H](c2cnc3c(c2)[C@]2(COC(N)=N2)c2cc(-c4cccc(Cl)c4)ccc2O3)CCO1 [Example 474, (5S)-7-(3-chlorophenyl)-3-((4S)-2,2-dimethyltetrahydro-2H-pyran-4-yl)spiro[chromeno[2,3-b]pyridine-5,4′-[1,3]oxazol]-2′-amine] | 9.4 nM | – |
| 5070 nM | > 10000 nM | – | COCC1SC(N)=N[C@]12c1cc(-c3cccnc3F)ccc1Oc1c(F)cc(OC)cc12 (stereo partly drawn) [Example 1091, (4S)-4′-fluoro-7′-(2-fluoro-3-pyridinyl)-2′-methoxy-5-(methoxymethyl)spiro[1,3-thiazole-4,9′-xanthen]-2-amine] | – | – |

| SMILES | IC50 [1] | IC50 [2, 3] | IC50 [2, 4] | IC50 ([2]; average IC50, HEK cells) | IC50 [2] |
| --- | --- | --- | --- | --- | --- |
| CC1(C)C=C(c2cc3c(cn2)Oc2ccc(-c4cncnc4)cc2[C@@]32COC(N)=N2)CCO1 [Example 543, (5S)-3-(6,6-dimethyl-3,6-dihydro-2H-pyran-4-yl)-7-(5-pyrimidinyl)spiro[chromeno[2,3-c]pyridine-5,4′-[1,3]oxazol]-2′-amine] | 1.6 nM | – | – | 24.6 nM | – |
| COC[C@H]1SC(N)=NC12c1cc(-c3cccnc3F)ccc1Oc1cnc(-c3ccnc(F)c3)cc12 (single isomer, unassigned) [Example 1093, (4′S/R,5′S)-7-(2-fluoropyridin-3-yl)-3-(2-fluoropyridin-4-yl)-5′-(methoxymethyl)-5′H-spiro[chromeno[2,3-c]pyridine-5,4′-thiazol]-2′-amine] | 5.7 nM | – | – | – | 495 nM |
